Measurements published in patent publication US9963462B2 (priority 2015, dated 2018).

Columns and labels:
[1] = system: BH4 levels in SK-N-BE (2) cells; assay: SKN-N-BE (2) cellular assay, BH4 levels by LC-MS; format: cell-based; conditions: Homo sapiens, SKNBE2, read-out: SK-N-BE(2) IC50, SK-N-BE (2) cells, BH4 levels by LC-MS
[2] = system: BH4 production in human peripheral blood mononuclear cells (PBMCs); assay: hPBMC assay, inhibition of BH4 production by LC-MS (anti-CD3/anti-CD28 stimulated); format: cell-based; conditions: PBMC, read-out: hPBMC IC50
[3] = target: SNAP-hSPR (sepiapterin reductase, SPR) (Homo sapiens, UniProt P35270); assay: biochemical; format: binding; conditions: terbium labelled SNAP-hSPR / SSZ labelled SNAP-EGFP; read-out: hTR-FRET IC50
[4] = system: neuropathic pain-like behaviors after spared nerve injury (SNI); assay: Behavioral pharmacology model: spared nerve injury (SNI), paw withdrawal threshold, von Frey filaments; format: in vivo; conditions: rat, oral gavage, mechanical endpoint, 4 hrs
Protocol: (§1) Behavioral Pharmacology Model: Compounds were administered by oral gavage to rats that had undergone one of two nerve injury surgeries: spared nerve injury to injure two of the three peripheral branches of the sciatic nerve or chronic constriction injury of the sciatic nerve. Paw withdrawal thresholds to mechanical stimulation using calibrated von Frey filaments were used as measurement of neuropathic pain-like behaviors.
(§2) Compounds were tested in standard behavioral pharmacology models for pain in rats as described in the literature (see, e.g., Latremoliere et al., Neuron, 86:1393-1406 (2015); Tegeder et al., Nature Medicine, 12:1269-1277 (2006)). Compounds were administered by oral gavage to rats that had undergone one of two nerve injury surgeries: spared nerve injury to injure two of the three peripheral branches of the sciatic nerve (SNI, Decosterd et al., Pain, 87:149-158 (2000)) or chronic constriction injury of the sciatic nerve (CCI, Bennett et al., Pain, 33:87-107 (1988)). Paw withdrawal thresholds to mechanical stimulation using calibrated von Frey filaments were used as measurement of neuropathic pain-like behaviors.

[5] = system: neuropathic pain-like behaviors after chronic constriction injury (CCI); assay: Behavioral pharmacology model: chronic constriction injury of the sciatic nerve (CCI), paw withdrawal threshold, von Frey filaments; format: in vivo; conditions: rat, oral gavage, mechanical endpoint, 4 hrs
Protocol: as §1, §2

SNAP-hSPR (sepiapterin reductase, SPR), sequence (P35270 whole entry): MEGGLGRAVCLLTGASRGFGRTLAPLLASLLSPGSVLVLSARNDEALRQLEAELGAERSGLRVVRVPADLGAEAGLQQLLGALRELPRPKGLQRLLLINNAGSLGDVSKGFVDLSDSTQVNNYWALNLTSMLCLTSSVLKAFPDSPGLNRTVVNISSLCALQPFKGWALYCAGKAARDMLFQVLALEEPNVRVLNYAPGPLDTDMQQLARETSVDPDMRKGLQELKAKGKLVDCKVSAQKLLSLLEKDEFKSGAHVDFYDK

| Compound | IC50 [1] [nM] | IC50 [2] [nM] | IC50 [3] [nM] | Behavior Significant effect ([4]; 20 mpk QD 3 days) | Behavior Significant effect ([5]; 10 mpk QD 3 days) | Behavior Significant effect ([5]; 9.5 mpk QD 3 days) | Behavior Significant effect ([4]; 15 mpk QD 3 days) | Behavior Significant effect ([4]; 10 mpk QD 3 days) |
| --- | --- | --- | --- | --- | --- | --- | --- | --- |
| Cc1c(C(=O)N2CCC3(CC2)CC3C(=O)N2CCCCC2)cnn1-c1nn2cccc2c(=O)[nH]1 (stereo not drawn) [Q-1057] | 100 | 67 | 1 | – | – | – | – | – |
| Cc1c(C(=O)N2CCC3(CC2)CC3C(=O)N2CCCCC2)cnn1-c1nc2c(c(=O)[nH]1)CCC2 (stereo not drawn) [Q-1058] | 93 | 150 | 2 | – | – | – | – | – |
| Cc1c(C(=O)N2CCC(F)(C#N)C2)cnn1-c1nn2cccc2c(=O)[nH]1 (stereo not drawn) [Q-1059] | 1300 | 2100 | 2 | – | – | – | – | – |
| Cc1c(C(=O)N2CCN(CCC(F)(F)F)CC2)cnn1-c1nn2cccc2c(=O)[nH]1 [Q-1060] | 200 | 220 | 2 | – | – | – | – | – |
| Cc1c(C(=O)N2CCC3(CC2)CC3C(=O)N2CCCC2)cnn1-c1nc2c(c(=O)[nH]1)CCC2 (stereo not drawn) [Q-1061] | 400 | 210 | 3 | – | – | – | – | – |
| Cc1c(C(=O)N2CCC(C(C#N)CCF)CC2)cnn1-c1nn2cccc2c(=O)[nH]1 (stereo not drawn) [Q-1062] | 100 | 97 | 1 | – | – | – | – | – |
| Cc1c(C(=O)N2CCC(C(C#N)CCF)CC2)cnn1-c1nc2c(c(=O)[nH]1)CCC2 (stereo not drawn) [Q-1063] | 55 | 120 | 2 | – | – | – | – | – |
| CCC(=C1CCN(C(=O)c2cnn(-c3nn4cccc4c(=O)[nH]3)c2C)CC1)C(F)(F)F [Q-1064] | 200 | 220 | 2 | – | – | – | – | – |
| C/C=C(/C1CCN(C(=O)c2cnn(-c3nn4cccc4c(=O)[nH]3)c2C)CC1)C(F)(F)F [Q-1065] | 58 | 74 | 1 | – | – | – | – | – |
| Cc1c(C(=O)N2CCC(C(O)C(F)(F)F)CC2)cnn1-c1nn2cccc2c(=O)[nH]1 (stereo not drawn) [Q-1066] | 300 | 82 | 1 | – | – | – | – | – |
| Cc1c(C(=O)N2CCC(C(O)C(F)(F)F)CC2)cnn1-c1nc2c(c(=O)[nH]1)CCC2 (stereo not drawn) [Q-1067] | 100 | 160 | 2 | – | – | – | – | – |
| Cc1c(C(=O)N2CCC(c3nc(C#N)co3)CC2)cnn1-c1nn2cccc2c(=O)[nH]1 [Q-1127] | – | 15 | 1 | yes | – | – | – | – |
| Cc1c(C(=O)N2CC(c3ccnc(F)c3)C2)cnn1-c1nn2cccc2c(=O)[nH]1 [Q-1133] | – | 22 | 2 | – | yes | – | – | – |
| Cc1c(C(=O)N2CCN(C3CC(F)(F)C3)CC2)cnn1-c1nn2cccc2c(=O)[nH]1 [Q-1169] | – | 77 | 1 | – | – | yes | – | – |
| Cc1c(C(=O)N2CC3CC(C2)N3C2CC2)cnn1-c1nn2cccc2c(=O)[nH]1 [Q-1195] | – | 47 | 2 | – | – | – | yes | – |
| Cc1c(C(=O)N2CCN(C3CCC3(F)F)CC2)nnn1-c1nn2cccc2c(=O)[nH]1 (stereo not drawn) [Q-1204] | – | 17 | 1 | – | – | – | – | yes |
| Cc1c(C(=O)N2CCC2c2ccc(F)nc2)cnn1-c1nn2cccc2c(=O)[nH]1 (stereo not drawn) [Q-1242] | – | 32 | 5 | – | – | – | – | yes |
| Cc1c(C(=O)N2CCN(C3CC(F)(F)C3)CC2)nnn1-c1nn2cccc2c(=O)[nH]1 [Q-1245] | – | 26 | 1 | – | – | yes | – | – |
